Counter-ions that a name gives are not always drawn.
Molecular target: T1, human recombinant ENPP1 (Homo sapiens, UniProt P22413)
T1 construct: purchased R & D systems
T1 sequence (P22413 1-925): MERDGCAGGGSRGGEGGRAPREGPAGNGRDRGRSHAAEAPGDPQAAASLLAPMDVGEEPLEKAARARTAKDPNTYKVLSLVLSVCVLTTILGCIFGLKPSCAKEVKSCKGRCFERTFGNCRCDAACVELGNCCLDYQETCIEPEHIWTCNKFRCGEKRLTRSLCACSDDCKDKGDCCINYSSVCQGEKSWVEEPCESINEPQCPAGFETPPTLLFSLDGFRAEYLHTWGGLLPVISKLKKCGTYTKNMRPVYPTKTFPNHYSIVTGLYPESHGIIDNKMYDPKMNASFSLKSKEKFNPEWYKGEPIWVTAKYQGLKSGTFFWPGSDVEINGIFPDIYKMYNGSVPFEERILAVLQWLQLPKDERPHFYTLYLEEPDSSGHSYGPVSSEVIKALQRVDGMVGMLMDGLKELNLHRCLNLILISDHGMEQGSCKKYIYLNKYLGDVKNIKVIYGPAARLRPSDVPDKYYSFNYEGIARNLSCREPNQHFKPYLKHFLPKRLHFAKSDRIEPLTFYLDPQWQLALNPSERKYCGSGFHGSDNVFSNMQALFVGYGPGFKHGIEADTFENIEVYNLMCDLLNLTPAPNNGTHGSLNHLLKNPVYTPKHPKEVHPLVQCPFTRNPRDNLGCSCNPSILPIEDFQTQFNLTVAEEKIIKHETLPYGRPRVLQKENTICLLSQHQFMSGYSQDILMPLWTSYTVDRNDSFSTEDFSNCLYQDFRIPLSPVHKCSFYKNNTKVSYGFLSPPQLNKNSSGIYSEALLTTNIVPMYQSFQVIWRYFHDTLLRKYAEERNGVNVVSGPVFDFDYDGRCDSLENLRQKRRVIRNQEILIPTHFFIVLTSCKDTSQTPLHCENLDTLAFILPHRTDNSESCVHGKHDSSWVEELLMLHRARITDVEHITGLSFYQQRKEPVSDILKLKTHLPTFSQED
Assay: ENPP1 enzyme assay with cGAMP substrate (AMP-Glo luminescence)
Format: biochemical
Details: human recombinant ENPP1 3 ng/reaction, cGAMP 5 μM, 37° C. 90 minutes, read-out: Enzymatic activity (ENPP1 IC50)
Outline: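 Human ENPP1 hydrolysis of 5 μM cGAMP was run for 90 min at 37° C in 50 mM Tris pH 8.5, 250 mM NaCl, 0.5 mM CaCl2, 1 μM ZnCl2, 5% glycerol, 1% DMSO. AMP product was quantified by AMP-Glo luminescence; IC50 came from 3-parameter fits of % residual activity, averaged over at least two runs.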

Row | Compound | IC50 [µM]
1 | COc1cc2c(Cc3ccc(N(C)C(=O)OC(C)(C)C)cc3)n[nH]c(=O)c2cc1OC [Example 152, tert-butyl (4-((6,7-dimethoxy-4-oxo-3,4-dihydrophthalazin-1-yl)methyl)phenyl) (methyl) carbamate] | > 10
2 | Nc1ccc(Cc2n[nH]c(=O)c3ccccc23)cc1 [Example 158, 4-(4-aminobenzyl)-phthalazin-1(2H)-one hydrochloride] | > 10
3 | COc1cc2c(Cc3ccc(N)cc3)n[nH]c(=O)c2cc1OC [Example 160, 4-(4-aminobenzyl)-6,7-dimethoxyphthalazin-1(2H)-one hydrochloride] | > 10
4 | COc1cc2c(Cc3ccc(N)cc3)nn(C)c(=O)c2cc1OC [Example 161, 4-(4-aminobenzyl)-6,7-dimethoxy-2-methylphthalazin-1(2H)-one hydrochloride] | > 10
5 | CNc1ccc(Cc2n[nH]c(=O)c3cc(OC)c(OC)cc23)cc1 [Example 163, 6,7-dimethoxy-4-(4-(methylamino)benzyl)phthalazin-1(2H) -one hydrochloride] | > 10
6 | CNc1ccc(Cc2nn(C)c(=O)c3cc(OC)c(OC)cc23)cc1 [Example 164, 6,7-dimethoxy-2-methyl-4-(4-(methylamino)benzyl)phthalazin-1(2H)-one hydrochloride] | > 10
7 | COc1cc2c(Cc3ccc4c(c3)CCN4)nn(C)c(=O)c2cc1OC [Example 166, 4-(indolin-5-yl-methyl)-6,7-dimethoxy-2-methylphthalazin-1(2H)-one hydrochloride] | > 10
8 | COc1cc2c(Cc3cccc(NS(=O)(=O)NC(=O)OC(C)(C)C)c3)n[nH]c(=O)c2cc1OC [Example 167, tert-butyl (N-(3-((6,7-dimethoxy-4-oxo-3,4-dihydrophthalazin-1-yl)methyl)phenyl)sulfamoyl)carbamate] | > 10
9 | CC(C)(C)OC(=O)NS(=O)(=O)Nc1ccc(Cc2n[nH]c(=O)c3ccccc23)cc1 [Example 169, tert-butyl (N-(4-((4-oxo-3,4-dihydrophthalazin-1-yl)methyl)phenyl)sulfamoyl)carbamate] | 1 to 10
10 | CN(c1ccc(Cc2n[nH]c(=O)c3ccccc23)cc1)S(=O)(=O)NC(=O)OC(C)(C)C [Example 173, tert-butyl N-methyl-N-(4-((4-oxo-3,4-dihydrophthalazin-1-yl)methyl)phenyl)sulfamoyl carbamate] | > 10
11 | COc1cc2c(Cc3ccc(N(C)S(=O)(=O)NC(=O)OC(C)(C)C)cc3)n[nH]c(=O)c2cc1OC [Example 174, tert-butyl N-(4-((6,7-dimethoxy-4-oxo-3,4-dihydrophthalazin-1-yl)methyl)phenyl)-N-methylsulfamoyl carbamate] | > 10
12 | COc1cc2c(Cc3ccc4c(c3)CCN4S(=O)(=O)NC(=O)OC(C)(C)C)n[nH]c(=O)c2cc1OC [Example 176, tert-butyl (5-((6,7-dimethoxy-4-oxo-3,4-dihydrophthalazin-1-yl)methyl)indolin-1-yl)sulfonyl carbamate] | > 10
13 | COc1cc2c(Cc3cccc(NS(N)(=O)=O)c3)n[nH]c(=O)c2cc1OC [Example 178, (N-(3-((6,7-dimethoxy-4-oxo-3,4-dihydrophthalazin-1-yl)methyl)phenyl)sulfamide hydrochloride] | > 10
14 | COc1cc2c(Cc3cccc(NS(N)(=O)=O)c3)nn(C)c(=O)c2cc1OC [Example 179, N-(3-((6,7-dimethoxy-3-methyl-4-oxo-3,4-dihydrophthalazin-1-yl)methyl)phenyl)sulfamide hydrochloride] | > 10
15 | Cn1nc(Cc2ccc(NS(N)(=O)=O)cc2)c2ccccc2c1=O [Example 181, N-(4-((3-methyl-4-oxo-3,4-dihydrophthalazin-1-yl)methyl)phenyl)sulfamide hydrochloride] | < 1
16 | COc1cc2c(Cc3ccc(NS(N)(=O)=O)cc3)nn(C)c(=O)c2cc1OC [Example 183, N-(4-((6,7-dimethoxy-3-methyl-4-oxo-3,4-dihydrophthalazin-1-yl)methyl)phenyl)sulfamide hydrochloride] | < 1
17 | CN(c1ccc(Cc2n[nH]c(=O)c3ccccc23)cc1)S(N)(=O)=O [Example 184, N-methyl-N-(4-((4-oxo-3,4-dihydrophthalazin-1-yl)methyl)phenyl)sulfamide hydrochloride] | 1 to 10
18 | COc1cc2c(Cc3ccc(N(C)S(N)(=O)=O)cc3)n[nH]c(=O)c2cc1OC [Example 185, N-(4-((6,7-dimethoxy-4-oxo-3,4-dihydrophthalazin-1-yl)methyl)phenyl)-N-methylsulfamide hydrochloride] | < 1
19 | COc1cc2c(Cc3ccc(N(C)S(N)(=O)=O)cc3)nn(C)c(=O)c2cc1OC [Example 186, N-(4-((6,7-dimethoxy-3-methyl-4-oxo-3,4-dihydrophthalazin-1-yl)methyl)phenyl)-N-methylsulfamide hydrochloride] | < 1

Second part, the molecule after the results:

Row | IC50 [µM] | Compound
20 | > 10 | COc1cc2c(Cc3ccc4c(c3)CCN4C(=O)OC(C)(C)C)nn(C)c(=O)c2cc1OC [Example 155]
21 | > 10 | COc1cc2c(Cc3cccc(N)c3)n[nH]c(=O)c2cc1OC [Example 156, 4-(3-aminobenzyl)-6,7-dimethoxyphthalazin-1(2H)-one hydrochloride]
22 | > 10 | COc1cc2c(Cc3cccc(N)c3)nn(C)c(=O)c2cc1OC [Example 157, 4-(3-aminobenzyl)-6,7-dimethoxy-2-methylphthalazin-1(2H)-one hydrochloride]
23 | > 10 | Cn1nc(Cc2ccc(N)cc2)c2ccccc2c1=O [Example 159, 4-(4-aminobenzyl)-2-methylphthalazin-1(2H)-one hydrochloride]
24 | > 10 | CNc1ccc(Cc2n[nH]c(=O)c3ccccc23)cc1 [Example 162, 4-(4-(methylamino)benzyl)phthalazin-1(2H)-one hydrochloride]
25 | > 10 | COc1cc2c(Cc3ccc4c(c3)CCN4)n[nH]c(=O)c2cc1OC [Example 165, 4-(indolin-5-yl-methyl)-6,7-dimethoxyphthalazin-1(2H)-one hydrochloride]
26 | > 10 | COc1cc2c(Cc3cccc(NS(=O)(=O)NC(=O)OC(C)(C)C)c3)nn(C)c(=O)c2cc1OC [Example 168, tert-butyl (N-(3-((6,7-dimethoxy-3-methyl-4-oxo-3,4-dihydrophthalazin-1-yl)methyl)phenyl)sulfamoyl)carbamate]
27 | > 10 | Cn1nc(Cc2ccc(NS(=O)(=O)NC(=O)OC(C)(C)C)cc2)c2ccccc2c1=O [Example 170, tert-butyl (N-(4-((3-methyl-4-oxo-3,4-dihydrophthalazin-1-yl)methyl)phenyl)sulfamoyl)carbamate]
28 | > 10 | COc1cc2c(Cc3ccc(NS(=O)(=O)NC(=O)OC(C)(C)C)cc3)n[nH]c(=O)c2cc1OC [Example 171, tert-butyl (N-(4-((6,7-dimethoxy-4-oxo-3,4-dihydrophthalazin-1-yl)methyl)phenyl)sulfamoyl)carbamate]
29 | 1 to 10 | COc1cc2c(Cc3ccc(NS(=O)(=O)NC(=O)OC(C)(C)C)cc3)nn(C)c(=O)c2cc1OC [Example 172, tert-butyl (N-(4-((6,7-dimethoxy-3-methyl-4-oxo-3,4-dihydrophthalazin-1-yl)methyl)phenyl)sulfamoyl)carbamate]
30 | > 10 | COc1cc2c(Cc3ccc4c(c3)CCN4S(=O)(=O)NC(=O)OC(C)(C)C)nn(C)c(=O)c2cc1OC [Example 177, tert-butyl (5-((6,7-dimethoxy-3-methyl-4-oxo-3,4-dihydrophthalazin-1-yl)methyl)indolin-1-yl)sulfonyl carbamate]
31 | < 1 | NS(=O)(=O)Nc1ccc(Cc2n[nH]c(=O)c3ccccc23)cc1 [Example 180, N-(4-((4-oxo-3,4-dihydrophthalazin-1-yl)methyl)phenyl)sulfamide hydrochloride]
32 | < 1 | COc1cc2c(Cc3ccc(NS(N)(=O)=O)cc3)n[nH]c(=O)c2cc1OC [Example 182, N-(4-((6,7-dimethoxy-4-oxo-3,4-dihydrophthalazin-1-yl)methyl)phenyl)sulfamide hydrochloride]
33 | < 1 | COc1cc2c(Cc3ccc4c(c3)CCN4S(N)(=O)=O)n[nH]c(=O)c2cc1OC [Example 187, 5-((6,7-dimethoxy-4-oxo-3,4-dihydrophthalazin-1-yl)methyl)indoline-1-sulfonamide hydrochloride]

From patent US20230159469A1, “NOVEL PHTHALAZINE DERIVATIVE HAVING ECTONUCLOEOTIDE PYROPHOSPHATASE/PHOSPHODIESTE RASE INHIBITORY ACTIVITY, AND USE THEREOF” (TXINNO BIOSCIENCE INC., priority 2020, published 2023)
